In US20020004220A1 (priority 1999, published 2002):
≈ marks a conversion by molar mass, not a printed value.

Legend:
Escherichia coli = experiment: microbe, parasite or virus in culture; format: cell-based; details: read-out: MIC (MIC99)
Staphylococcus aureus = experiment: microbe, parasite or virus in culture; format: cell-based; details: read-out: MIC (MIC99)

SMILES	MIC99 (Escherichia coli) [µg/mL]	MIC99 (Staphylococcus aureus) [µg/mL]
O=C(N[C@H](CO)[C@H](O)c1ccc([N+](=O)[O-])cc1)C(Cl)Cl [Chloramphenicol]	1.9 (≈ 5.88 µM)	1.9 (≈ 5.88 µM)
CCn1cc(C(=O)O)c(=O)c2cc(F)c(N3CCNCC3)cc21 [Norfloxacin]	0.045 (≈ 0.141 µM)	0.85 (≈ 2.66 µM)
CC1(C)S[C@@H]2[C@H](NC(=O)Cc3ccccc3)C(=O)N2[C@H]1C(=O)O [Penicillin]	3 (≈ 8.97 µM)	0.024 (≈ 0.0718 µM)
CO[C@H]1/C=C/O[C@@]2(C)Oc3c(C)c(O)c4c(O)c(c(/C=N/N5CCN(C)CC5)c(O)c4c3C2=O)NC(=O)/C(C)=C\C=C\[C@H](C)[C@H](O)[C@@H](C)[C@@H](O)[C@@H](C)[C@H](OC(C)=O)[C@@H]1C [Rifampicin]	5 (≈ 6.08 µM)	0.004 (≈ 0.00486 µM)
NC[C@H]1O[C@H](O[C@H]2[C@H](O)[C@@H](O[C@H]3O[C@H](CO)[C@@H](O)[C@H](N)[C@H]3O)[C@H](N)C[C@@H]2N)[C@H](N)C[C@@H]1O [Tobramycin]	1.2 (≈ 2.57 µM)	0.27 (≈ 0.578 µM)
CN[C@H](CC(C)C)C(=O)N[C@H]1C(=O)N[C@@H](CC(N)=O)C(=O)N[C@H]2C(=O)N[C@H]3C(=O)N[C@H](C(=O)N[C@H](C(=O)O)c4cc(O)cc(O)c4-c4cc3ccc4O)[C@H](O)c3ccc(c(Cl)c3)Oc3cc2cc(c3O[C@@H]2O[C@H](CO)[C@@H](O)[C@H](O)[C@H]2O[C@H]2C[C@](C)(N)[C@H](O)[C@H](C)O2)Oc2ccc(cc2Cl)[C@H]1O [Vancomycin]	–	0.65 (≈ 0.449 µM)
